Results as given in patent US9745339B2 (GRAFFINITY PHARMACEUTICALS GMBH, priority 2012, dated 2017).

Key:
Details in all cases: L55-73: estimated values based on the knowledge obtained from L01-L54
Bevacizumab = biological target: T1, Bevacizumab (Homo sapiens, UniProt P01857); experiment: Microtiter plate chromatography of resins: binding and elution of Bevacizumab
T1 construct: 0.5 mg/ml IgG in PBS pH 7.3; ligand immobilized on SEPHAR; Bevacizumab Yield; other: mass eluted (glycine pH 2.5) / mass injected; kd (dissociation constant, Langmuir isotherm); other: Bevacizumab 0.05-5 mg/ml in PBS pH 7.3, 25° C., at least 3 h; qm (maximum capacity); other: mg Bevacizumab per ml of resin; Langmuir isotherm; t0; fused on or other part: Humanized anti-VEGF-A VH domain joined N-terminally to the IGHG1 constant region (engineered, no UniProt entry)
Experimental: (§1) Resins were assessed in packed mode by microtiter plate chromatography. For each column, approximately 30 μl of resin were transferred to a 384-well filter plate and sealed with appropriate top fits. Columns with rProtein A SEPHAROSE 4 FF and MABSORBENT A2P HF were included as controls.
(§2) Either 3.3 cv of whole IgGs dissolved at 0.5 mg ml^−1 in PBS or undiluted host cell proteins (HCP) were injected onto columns.
(§3) Unbound protein was washed from columns with 5 cv of PBS prior to elution with 5 cv of glycine buffer at pH 2.5. […] During injection of samples, speed was reduced to 10 g and centrifugation time increased to 5-10 min. Effluent fractions were collected in 384-well plates and concentrations of protein were analyzed by Bradford assay. Protein masses mi, mft and me (see below) were calculated as the product of fraction volume and measured protein concentration.
(§4) The fraction of bound protein was calculated as the difference between the total mass of protein injected mi and the mass of protein detected in the flowthrough mft, divided by the total mass of protein injected.
(§5) The yield of protein was calculated as the mass of protein eluted me, divided by the mass of protein injected mi.
The selectivity of resins was calculated as the fraction of bound Bevacizumab antibody BAb, divided by the fraction of bound host cell proteins BHCP.
(§6) The fraction of bound protein and the yield of protein were calculated for each resin based on data for whole IgG-antibodies. In the case of host cell proteins, only the fraction of bound protein is given. Selectivity of resins was calculated from data for Bevacizumab whole IgG and host cell proteins. Due to limited experimental precision, selectivity was truncated for values beyond 10.

Tocilizumab = experiment: Microtiter plate chromatography of resins: binding and elution of Tocilizumab
Experimental: as §1, §2, §3, §4, §5, §6

Palivizumab = experiment: Microtiter plate chromatography of resins: binding and elution of Palivizumab
Experimental: as §1, §2, §3, §4, §5, §6

Cetuximab = experiment: Microtiter plate chromatography of resins: binding and elution of Cetuximab
Experimental: as §1, §2, §3, §4, §5, §6

[1] = system: poly-IgG from human serum (h-poly-IgG); experiment: Microtiter plate chromatography of resins: binding and elution of human poly-IgG
Experimental: as §1, §2, §3, §4, §5, §6

host cell proteins (HCP) = experiment: Microtiter plate chromatography of resins: binding of host cell proteins; design: species or system CHO cell culture
Experimental: Flowthrough from protein A chromatography (referred to as host cell proteins) was derived from the supernatant of antibody-producing CHO cell culture in serum-free medium. Coomassie brilliant blue dye reagent for Bradford assay was purchased from Thermo Scientific (Bonn/Germany).
as §1, §2, §3, §4, §6

Cc1nc2cc(C(=O)Nc3ncc(-c4ccco4)s3)ccc2n1CCCN [Ligand L63, 1-(3-Amino-1-propyl)-2-methylbenzimidazole-5-carboxylic acid N-[5-(2-furyl)thiazol-2-yl] amide]
Bevacizumab Bound (Bevacizumab): 100%
Bevacizumab Yield (Bevacizumab): >80%
Tocilizumab Bound (Tocilizumab): >95%
Palivizumab Bound (Palivizumab): >80%
Cetuximab Bound (Cetuximab): 100%
h-poly-IgG Bound [1]: >80%
HCP Bound (host cell proteins (HCP)): <20%

CCc1nc2cc(C(=O)Nc3ccc(-c4ccco4)nn3)ccc2n1CCCN [Ligand L69, 1-(3-Amino-1-propyl)-2-ethylbenzimidazole-5-carboxylic acid N-[6-(2-furyl)pyridazin-3-yl]amide]
Bevacizumab Bound (Bevacizumab): 100%
Bevacizumab Yield (Bevacizumab): >80%
Tocilizumab Bound (Tocilizumab): >90%
Palivizumab Bound (Palivizumab): >60%
Cetuximab Bound (Cetuximab): >95%
h-poly-IgG Bound [1]: >80%
HCP Bound (host cell proteins (HCP)): <30%

NCCCn1cnc2cc(C(=O)Nc3ncc(-c4ccco4)s3)ccc21 [Ligand L58, 1-(3-Amino-1-propyl)benzimidazole-5-carboxylic acid N-[5-(2-furyl)thiazol-2-yl] amide]
Bevacizumab Bound (Bevacizumab): 100%
Bevacizumab Yield (Bevacizumab): >80%
Tocilizumab Bound (Tocilizumab): >95%
Palivizumab Bound (Palivizumab): >80%
Cetuximab Bound (Cetuximab): 100%
h-poly-IgG Bound [1]: >80%
HCP Bound (host cell proteins (HCP)): <40%

Cc1nc2cc(C(=O)Nc3nnc(-c4ccoc4)s3)ccc2n1CCCN [Ligand L61, 1-(3-Amino-1-propyl)-2-methylbenzimidazole-5-carboxylic acid N-[5-(3-furyl)-1,3,4-thiadiazol-2-yl] amide]
Bevacizumab Bound (Bevacizumab): 100%
Bevacizumab Yield (Bevacizumab): >80%
Tocilizumab Bound (Tocilizumab): >95%
Palivizumab Bound (Palivizumab): >80%
Cetuximab Bound (Cetuximab): 100%
h-poly-IgG Bound [1]: >80%
HCP Bound (host cell proteins (HCP)): <40%

Cc1nc2cc(C(=O)Nc3nc(-c4ccco4)cs3)ccc2n1CCCN [Ligand L62, 1-(3-Amino-1-propyl)-2-methylbenzimidazole-5-carboxylic acid N-[4-(2-furyl)thiazol-2-yl] amide]
Bevacizumab Bound (Bevacizumab): 100%
Bevacizumab Yield (Bevacizumab): >80%
Tocilizumab Bound (Tocilizumab): >95%
Palivizumab Bound (Palivizumab): >80%
Cetuximab Bound (Cetuximab): 100%
h-poly-IgG Bound [1]: >80%
HCP Bound (host cell proteins (HCP)): <40%

Cc1nc2cc(C(=O)Nc3nnc(-c4ncco4)s3)ccc2n1CCCN [Ligand L73, 1-(3-Amino-1-propyl)-2-methylbenzimidazole-5-carboxylic acid N-[5-(2-oxazolyl)-1,3,4-thiadiazol-2-yl] amide]
Bevacizumab Bound (Bevacizumab): 100%
Bevacizumab Yield (Bevacizumab): >80%
Tocilizumab Bound (Tocilizumab): >90%
Palivizumab Bound (Palivizumab): >60%
Cetuximab Bound (Cetuximab): >95%
h-poly-IgG Bound [1]: >80%
HCP Bound (host cell proteins (HCP)): <20%

Cc1nc2cc(C(=O)Nc3nnc(-c4cnco4)s3)ccc2n1CCCN [Ligand L72, 1-(3-Amino-1-propyl)-2-methylbenzimidazole-5-carboxylic acid N-[5-(5-oxazolyl)-1,3,4-thiadiazol-2-yl] amide]
Bevacizumab Bound (Bevacizumab): 100%
Bevacizumab Yield (Bevacizumab): >80%
Tocilizumab Bound (Tocilizumab): >90%
Palivizumab Bound (Palivizumab): >60%
Cetuximab Bound (Cetuximab): >95%
h-poly-IgG Bound [1]: >80%
HCP Bound (host cell proteins (HCP)): <20%

CCc1nc2cc(C(=O)Nc3nnc(-c4ccoc4)s3)ccc2n1CCCN [Ligand L66, 1-(3-Amino-1-propyl)-2-ethylbenzimidazole-5-carboxylic acid N-[5-(3-furyl)-1,3,4-thiadiazol-2-yl] amide]
Bevacizumab Bound (Bevacizumab): 100%
Bevacizumab Yield (Bevacizumab): >80%
Tocilizumab Bound (Tocilizumab): >95%
Palivizumab Bound (Palivizumab): >80%
Cetuximab Bound (Cetuximab): 100%
h-poly-IgG Bound [1]: >80%
HCP Bound (host cell proteins (HCP)): <30%

CCc1nc2cc(C(=O)Nc3nc(-c4ccco4)cs3)ccc2n1CCCN [Ligand L67, 1-(3-Amino-1-propyl)-2-ethylbenzimidazole-5-carboxylic acid N-[4-(2-furyl)thiazol-2-yl] amide]
Bevacizumab Bound (Bevacizumab): 100%
Bevacizumab Yield (Bevacizumab): >80%
Tocilizumab Bound (Tocilizumab): >95%
Palivizumab Bound (Palivizumab): >80%
Cetuximab Bound (Cetuximab): 100%
h-poly-IgG Bound [1]: >80%
HCP Bound (host cell proteins (HCP)): <30%

NCCCn1cnc2cc(C(=O)Nc3nc(-c4ccco4)cs3)ccc21 [Ligand L57, 1-(3-Amino-1-propyl)benzimidazole-5-carboxylic acid N-[4-(2-furyl)thiazol-2-yl] amide]
Bevacizumab Bound (Bevacizumab): 100%
Bevacizumab Yield (Bevacizumab): >80%
Tocilizumab Bound (Tocilizumab): >95%
Palivizumab Bound (Palivizumab): >80%
Cetuximab Bound (Cetuximab): 100%
h-poly-IgG Bound [1]: >80%
HCP Bound (host cell proteins (HCP)): <40%

NCCCn1cnc2cc(C(=O)Nc3ccc(-c4ccco4)nn3)ccc21 [Ligand L59, 1-(3-Amino-1-propyl)benzimidazole-5-carboxylic acid N-[6-(2-furyl)pyridazin-3-yl] amide]
Bevacizumab Bound (Bevacizumab): 100%
Bevacizumab Yield (Bevacizumab): >80%
Tocilizumab Bound (Tocilizumab): >90%
Palivizumab Bound (Palivizumab): >60%
Cetuximab Bound (Cetuximab): >95%
h-poly-IgG Bound [1]: >80%
HCP Bound (host cell proteins (HCP)): <40%

Cc1nc2cc(C(=O)Nc3nc(-c4ccco4)ns3)ccc2n1CCCN [Ligand L60, 1-(3-Amino-1-propyl)-2-methylbenzimidazole-5-carboxylic acid N-[3-(2-furyl)-1,2,4-thiadiazol-5-yl] amide]
Bevacizumab Bound (Bevacizumab): 100%
Bevacizumab Yield (Bevacizumab): >80%
Tocilizumab Bound (Tocilizumab): >95%
Palivizumab Bound (Palivizumab): >80%
Cetuximab Bound (Cetuximab): 100%
h-poly-IgG Bound [1]: >80%
HCP Bound (host cell proteins (HCP)): <40%

NCCCNc1nc(-c2ccc(C(=O)Nc3nnc(-c4ccco4)s3)cc2)cs1 [Ligand L70, 4-[2-(3-Amino-1-propylamino)thiazol-4-yl]benzoic acid N-[5-(2-furyl)-1,3,4-thiadiazol-2-yl]amide]
Bevacizumab Bound (Bevacizumab): 100%
Bevacizumab Yield (Bevacizumab): >80%
Tocilizumab Bound (Tocilizumab): >80%
Palivizumab Bound (Palivizumab): >50%
Cetuximab Bound (Cetuximab): >80%
h-poly-IgG Bound [1]: >80%
HCP Bound (host cell proteins (HCP)): <40%

NCCCn1cnc2cc(C(=O)Nc3nc(-c4ccco4)ns3)ccc21 [Ligand L55, 1-(3-Amino-1-propyl)benzimidazole-5-carboxylic acid N-[3-(2-furyl)-1,2,4-thiadiazol-5-yl] amide]
Bevacizumab Bound (Bevacizumab): 100%
Bevacizumab Yield (Bevacizumab): >80%
Tocilizumab Bound (Tocilizumab): >95%
Palivizumab Bound (Palivizumab): >80%
Cetuximab Bound (Cetuximab): 100%
h-poly-IgG Bound [1]: >80%
HCP Bound (host cell proteins (HCP)): <40%

CCc1nc2cc(C(=O)Nc3ncc(-c4ccco4)s3)ccc2n1CCCN [Ligand L68, 1-(3-Amino-1-propyl)-2-ethylbenzimidazole-5-carboxylic acid N-[5-(2-furyl)thiazol-2-yl] amide]
Bevacizumab Bound (Bevacizumab): 100%
Bevacizumab Yield (Bevacizumab): >80%
Tocilizumab Bound (Tocilizumab): >95%
Palivizumab Bound (Palivizumab): >80%
Cetuximab Bound (Cetuximab): 100%
h-poly-IgG Bound [1]: >80%
HCP Bound (host cell proteins (HCP)): <30%

CCc1nc2cc(C(=O)Nc3nc(-c4ccco4)ns3)ccc2n1CCCN [Ligand L65, 1-(3-Amino-1-propyl)-2-ethylbenzimidazole-5-carboxylic acid N-[3-(2-furyl)-1,2,4-thiadiazol-5-yl] amide]
Bevacizumab Bound (Bevacizumab): 100%
Bevacizumab Yield (Bevacizumab): >80%
Tocilizumab Bound (Tocilizumab): >95%
Palivizumab Bound (Palivizumab): >80%
Cetuximab Bound (Cetuximab): 100%
h-poly-IgG Bound [1]: >80%
HCP Bound (host cell proteins (HCP)): <30%
